In paper PMC9482650, “Quantitative fragmentomics allow affinity mapping of interactomes” (Nature Communications, 2022):
Ends that are not written are not given here.

Assays:
Type in all cases: binding
GIPC2 PDZ = GIPC2 PDZ (Homo sapiens, UniProt Q8TF65); experiment: Holdup assay; settings: composite holdup affinity; 0.00=below quantification threshold; read-out: COMP pKd (converted)
DLG3_1 PDZ = DLG3_1 PDZ (Homo sapiens, UniProt Q92796); experiment: Holdup assay; settings: composite holdup affinity; 0.00=below quantification threshold; read-out: COMP pKd (converted)
DLG3_1 PDZ, sequence (Q92796 130-217 limits assumed): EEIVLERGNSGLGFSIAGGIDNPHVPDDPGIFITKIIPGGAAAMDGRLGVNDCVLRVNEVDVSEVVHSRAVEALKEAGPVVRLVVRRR

GOPC PDZ = GOPC PDZ (Homo sapiens, UniProt Q9HD26); experiment: Holdup assay; settings: composite holdup affinity; 0.00=below quantification threshold; read-out: COMP pKd (converted)
SNX27 PDZ = SNX27 PDZ (Homo sapiens, UniProt Q96L92); experiment: Holdup assay; settings: composite holdup affinity; 0.00=below quantification threshold; read-out: COMP pKd (converted)
DLG1_3 PDZ = DLG1_3 PDZ (Homo sapiens, UniProt Q12959); experiment: Holdup assay; settings: composite holdup affinity; 0.00=below quantification threshold; read-out: COMP pKd (converted)
DLG1_3 PDZ, sequence (Q12959 466-546 limits assumed): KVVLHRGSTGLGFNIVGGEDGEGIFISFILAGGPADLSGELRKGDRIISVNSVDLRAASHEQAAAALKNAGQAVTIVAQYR

MAGI2_5 PDZ = MAGI2_5 PDZ (Homo sapiens, UniProt Q86UL8); experiment: Holdup assay; settings: composite holdup affinity; 0.00=below quantification threshold; read-out: COMP pKd (converted)
MAGI2_5 PDZ, sequence (Q86UL8 920-1010 limits assumed): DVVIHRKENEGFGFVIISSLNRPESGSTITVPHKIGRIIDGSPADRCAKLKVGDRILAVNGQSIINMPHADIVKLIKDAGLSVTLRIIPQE

ARHGEF11 PDZ = ARHGEF11 PDZ (Homo sapiens, UniProt O15085); experiment: Holdup assay; settings: composite holdup affinity; 0.00=below quantification threshold; read-out: COMP pKd (converted)
ARHGEF11 PDZ, sequence (O15085 47-126 limits assumed): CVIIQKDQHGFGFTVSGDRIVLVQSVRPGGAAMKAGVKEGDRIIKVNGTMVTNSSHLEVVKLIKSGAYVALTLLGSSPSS

MAGI2_2 PDZ = MAGI2_2 PDZ (Homo sapiens, UniProt Q86UL8); experiment: Holdup assay; settings: composite holdup affinity; 0.00=below quantification threshold; read-out: COMP pKd (converted)
MAGI2_2 PDZ, sequence (Q86UL8 426-510 limits assumed): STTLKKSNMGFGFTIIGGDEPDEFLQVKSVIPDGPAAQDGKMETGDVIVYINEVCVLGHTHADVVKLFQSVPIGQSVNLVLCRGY

MAGI1_2 PDZ = MAGI1_2 PDZ (Homo sapiens, UniProt Q96QZ7); experiment: biochemical; settings: composite holdup affinity; 0.00=below quantification threshold; read-out: COMP pKd (converted)
MAGI1_2 PDZ, sequence (Q96QZ7 472-554 limits assumed): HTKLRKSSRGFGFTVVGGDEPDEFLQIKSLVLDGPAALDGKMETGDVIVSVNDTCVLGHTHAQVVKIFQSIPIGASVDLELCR

DLG4_2 PDZ = DLG4_2 PDZ (Homo sapiens, UniProt P78352); experiment: Holdup assay; settings: composite holdup affinity; 0.00=below quantification threshold; read-out: COMP pKd (converted)
DLG4_2 PDZ, sequence (P78352 160-246 limits assumed): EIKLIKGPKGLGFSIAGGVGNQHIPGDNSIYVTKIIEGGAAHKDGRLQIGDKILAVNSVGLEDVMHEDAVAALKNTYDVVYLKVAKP

DLG3_3 PDZ = DLG3_3 PDZ (Homo sapiens, UniProt Q92796); experiment: Holdup assay; settings: composite holdup affinity; 0.00=below quantification threshold; read-out: COMP pKd (converted)
DLG3_3 PDZ, sequence (Q92796 379-465 limits assumed): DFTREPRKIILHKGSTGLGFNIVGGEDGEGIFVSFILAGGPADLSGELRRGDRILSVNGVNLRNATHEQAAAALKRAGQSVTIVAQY

LIN7C PDZ = LIN7C PDZ (Homo sapiens, UniProt Q9NUP9); experiment: Holdup assay; settings: composite holdup affinity; 0.00=below quantification threshold; read-out: COMP pKd (converted)
LIN7C PDZ, sequence (Q9NUP9 93-175 limits assumed): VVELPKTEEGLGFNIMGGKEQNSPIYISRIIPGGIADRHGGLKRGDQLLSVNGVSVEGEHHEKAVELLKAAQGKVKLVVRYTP

SNTG2 PDZ = SNTG2 PDZ (Homo sapiens, UniProt Q9NY99); experiment: Holdup assay; settings: composite holdup affinity; 0.00=below quantification threshold; read-out: COMP pKd (converted)
SNTG2 PDZ, sequence (Q9NY99 73-156 limits assumed): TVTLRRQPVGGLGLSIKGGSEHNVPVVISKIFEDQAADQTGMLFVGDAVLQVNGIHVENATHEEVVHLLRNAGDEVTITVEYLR

PDZD7_3 PDZ = PDZD7_3 PDZ (Homo sapiens, UniProt Q9H5P4); experiment: Holdup assay; settings: composite holdup affinity; 0.00=below quantification threshold; read-out: COMP pKd (converted)
PDZD7_3 PDZ, sequence (Q9H5P4 862-934 limits assumed): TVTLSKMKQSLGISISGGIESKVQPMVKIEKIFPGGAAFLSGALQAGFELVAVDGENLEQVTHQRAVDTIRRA

PTPN3 PDZ = PTPN3 PDZ (Homo sapiens, UniProt P26045); experiment: Holdup assay; settings: composite holdup affinity; 0.00=below quantification threshold; read-out: COMP pKd (converted)
PTPN3 PDZ, sequence (P26045 510-582 limits assumed): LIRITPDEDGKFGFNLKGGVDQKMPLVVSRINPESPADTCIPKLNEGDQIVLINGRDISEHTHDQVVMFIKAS

NOS1 PDZ = NOS1 PDZ (Homo sapiens, UniProt P29475); experiment: Holdup assay; settings: composite holdup affinity; 0.00=below quantification threshold; read-out: COMP pKd (converted)
NOS1 PDZ, sequence (P29475 17-99 limits assumed): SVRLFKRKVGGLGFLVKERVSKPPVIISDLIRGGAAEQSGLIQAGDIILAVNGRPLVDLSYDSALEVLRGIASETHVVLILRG

MPP1 PDZ = MPP1 PDZ (Homo sapiens, UniProt Q00013); experiment: Holdup assay; settings: sheet PPI_convert; read-out: affinity to PDZ MPP1 (converted)
MPP1 PDZ, sequence (Q00013 71-152 limits assumed): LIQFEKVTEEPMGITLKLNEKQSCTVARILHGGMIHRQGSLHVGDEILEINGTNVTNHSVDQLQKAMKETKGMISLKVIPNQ

MAGI2_3 PDZ = MAGI2_3 PDZ (Homo sapiens, UniProt Q86UL8); experiment: Holdup assay; settings: composite holdup affinity; 0.00=below quantification threshold; read-out: COMP pKd (converted)
MAGI2_3 PDZ, sequence (Q86UL8 605-683 limits assumed): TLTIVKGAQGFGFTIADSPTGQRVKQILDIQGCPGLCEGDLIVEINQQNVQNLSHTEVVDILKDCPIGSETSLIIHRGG

MAST2 PDZ = target: T1, MAST2 PDZ (Homo sapiens, UniProt Q6P0Q8); experiment: biochemical; settings: composite holdup affinity; 0.00=below quantification threshold; read-out: COMP pKd (converted)
T1 sequence (Q6P0Q8 1104-1192 limits assumed): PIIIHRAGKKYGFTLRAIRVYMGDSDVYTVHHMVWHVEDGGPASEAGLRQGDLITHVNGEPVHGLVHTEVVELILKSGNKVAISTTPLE

DLG2_2 PDZ = DLG2_2 PDZ (Homo sapiens, UniProt Q15700); experiment: Holdup assay; settings: composite holdup affinity; 0.00=below quantification threshold; read-out: COMP pKd (converted)
DLG2_2 PDZ, sequence (Q15700 193-279 limits assumed): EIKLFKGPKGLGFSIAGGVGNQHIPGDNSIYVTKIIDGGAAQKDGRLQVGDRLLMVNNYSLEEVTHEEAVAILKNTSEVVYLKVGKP

MAGI3_2 PDZ = MAGI3_2 PDZ (Homo sapiens, UniProt Q5TCQ9); experiment: Holdup assay; settings: composite holdup affinity; 0.00=below quantification threshold; read-out: COMP pKd (converted)
MAGI3_2 PDZ, sequence (Q5TCQ9 410-492 limits assumed): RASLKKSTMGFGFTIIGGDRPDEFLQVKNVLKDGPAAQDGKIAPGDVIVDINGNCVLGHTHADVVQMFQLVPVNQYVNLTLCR

APBA1_2 PDZ = APBA1_2 PDZ (Homo sapiens, UniProt Q02410); experiment: Holdup assay; settings: composite holdup affinity; 0.00=below quantification threshold; read-out: COMP pKd (converted)
APBA1_2 PDZ, sequence (Q02410 747-822 limits assumed): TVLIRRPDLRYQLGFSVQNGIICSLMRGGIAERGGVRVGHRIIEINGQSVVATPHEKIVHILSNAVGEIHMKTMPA

DLG4_1 PDZ = DLG4_1 PDZ (Homo sapiens, UniProt P78352); experiment: Holdup assay; settings: composite holdup affinity; 0.00=below quantification threshold; read-out: COMP pKd (converted)
DLG4_1 PDZ, sequence (P78352 65-151): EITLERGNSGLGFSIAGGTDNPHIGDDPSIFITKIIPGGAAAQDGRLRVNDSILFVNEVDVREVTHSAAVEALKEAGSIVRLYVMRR

DLG2_3 PDZ = DLG2_3 PDZ (Homo sapiens, UniProt Q15700); experiment: Holdup assay; settings: composite holdup affinity; 0.00=below quantification threshold; read-out: COMP pKd (converted)
DLG2_3 PDZ, sequence (Q15700 421-501 limits assumed): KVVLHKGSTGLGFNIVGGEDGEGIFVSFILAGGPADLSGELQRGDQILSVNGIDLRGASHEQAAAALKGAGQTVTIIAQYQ

NHERF3_1 PDZ = NHERF3_1 PDZ (Homo sapiens, UniProt Q5T2W1); experiment: Holdup assay; settings: composite holdup affinity; 0.00=below quantification threshold; read-out: COMP pKd (converted)
NHERF3_1 PDZ, sequence (Q5T2W1 9-90 limits assumed): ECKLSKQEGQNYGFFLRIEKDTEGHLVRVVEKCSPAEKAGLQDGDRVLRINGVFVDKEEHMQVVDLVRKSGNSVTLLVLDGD

MAST1 PDZ = MAST1 PDZ (Homo sapiens, UniProt Q9Y2H9); experiment: Holdup assay; settings: composite holdup affinity; 0.00=below quantification threshold; read-out: COMP pKd (converted)
MAST1 PDZ, sequence (Q9Y2H9 967-1055 limits assumed): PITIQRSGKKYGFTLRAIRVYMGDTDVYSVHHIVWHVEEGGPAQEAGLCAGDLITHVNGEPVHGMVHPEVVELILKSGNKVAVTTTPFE

LNX2_2 PDZ = LNX2_2 PDZ (Homo sapiens, UniProt Q8N448); experiment: Holdup assay; settings: composite holdup affinity; 0.00=below quantification threshold; read-out: COMP pKd (converted)
LNX2_2 PDZ, sequence (Q8N448 339-422 limits assumed): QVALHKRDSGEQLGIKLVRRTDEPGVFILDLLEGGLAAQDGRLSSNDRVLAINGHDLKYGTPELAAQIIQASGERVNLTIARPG

SCRIB_1 PDZ = SCRIB_1 PDZ (Homo sapiens, UniProt Q14160); experiment: Holdup assay; settings: composite holdup affinity; 0.00=below quantification threshold; read-out: COMP pKd (converted)
SCRIB_1 PDZ, sequence (Q14160 728-815 limits assumed): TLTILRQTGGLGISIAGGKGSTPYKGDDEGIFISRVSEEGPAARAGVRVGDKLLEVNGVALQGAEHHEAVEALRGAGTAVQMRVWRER

DLG2_1 PDZ = DLG2_1 PDZ (Homo sapiens, UniProt Q15700); experiment: Holdup assay; settings: sheet PPI_convert; read-out: affinity to PDZ DLG2_1 (converted)
DLG2_1 PDZ, sequence (Q15700 98-184): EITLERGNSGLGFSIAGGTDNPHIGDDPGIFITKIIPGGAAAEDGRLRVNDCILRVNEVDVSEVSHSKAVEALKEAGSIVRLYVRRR

DFNB31_1 PDZ = DFNB31_1 PDZ (Homo sapiens, UniProt Q9P202); experiment: Holdup assay; settings: composite holdup affinity; 0.00=below quantification threshold; read-out: COMP pKd (converted)
DFNB31_1 PDZ, sequence (Q9P202 140-223 limits assumed): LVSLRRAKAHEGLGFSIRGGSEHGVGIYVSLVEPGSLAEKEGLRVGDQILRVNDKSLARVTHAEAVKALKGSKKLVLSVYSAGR

DLG4_3 PDZ = DLG4_3 PDZ (Homo sapiens, UniProt P78352); experiment: Holdup assay; settings: composite holdup affinity; 0.00=below quantification threshold; read-out: COMP pKd (converted)
DLG4_3 PDZ, sequence (P78352 313-393 limits assumed): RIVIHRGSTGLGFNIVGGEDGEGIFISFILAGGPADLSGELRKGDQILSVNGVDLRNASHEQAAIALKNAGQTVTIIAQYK

SCRIB_3 PDZ = SCRIB_3 PDZ (Homo sapiens, UniProt Q14160); experiment: Holdup assay; settings: composite holdup affinity; 0.00=below quantification threshold; read-out: COMP pKd (converted)
SCRIB_3 PDZ, sequence (Q14160 1004-1093 limits assumed): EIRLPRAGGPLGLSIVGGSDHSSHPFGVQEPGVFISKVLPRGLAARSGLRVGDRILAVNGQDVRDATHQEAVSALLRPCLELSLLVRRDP

SNTG1 PDZ = SNTG1 PDZ (Homo sapiens, UniProt Q9NSN8); experiment: Holdup assay; settings: composite holdup affinity; 0.00=below quantification threshold; read-out: COMP pKd (converted)
SNTG1 PDZ, sequence (Q9NSN8 57-140 limits assumed): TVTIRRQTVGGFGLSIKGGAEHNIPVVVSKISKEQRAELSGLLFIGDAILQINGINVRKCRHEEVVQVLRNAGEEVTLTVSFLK

PDZRN4_1 PDZ = PDZRN4_1 PDZ (Homo sapiens, UniProt Q6ZMN7); experiment: Holdup assay; settings: composite holdup affinity; 0.00=below quantification threshold; read-out: COMP pKd (converted)
PDZRN4_1 PDZ, sequence (Q6ZMN7 224-314 limits assumed): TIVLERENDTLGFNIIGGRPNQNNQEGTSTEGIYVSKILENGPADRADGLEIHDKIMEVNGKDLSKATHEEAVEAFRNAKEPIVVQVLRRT

SCRIB2 PDZ = target: T2, SCRIB2 PDZ (Homo sapiens, UniProt Q14160); experiment: Holdup assay; settings: composite holdup affinity; 0.00=below quantification threshold; read-out: COMP pKd (converted)
T2 sequence (Q14160 862-950 limits assumed): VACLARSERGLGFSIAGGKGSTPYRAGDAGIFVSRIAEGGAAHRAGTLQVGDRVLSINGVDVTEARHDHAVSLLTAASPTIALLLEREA

SNTA1 PDZ = SNTA1 PDZ (Homo sapiens, UniProt Q13424); experiment: Holdup assay; settings: composite holdup affinity; 0.00=below quantification threshold; read-out: COMP pKd (converted)
SNTA1 PDZ, sequence (Q13424 87-170 limits assumed): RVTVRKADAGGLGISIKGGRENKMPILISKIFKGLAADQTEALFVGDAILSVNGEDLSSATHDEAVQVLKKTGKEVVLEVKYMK

RHPN1 PDZ = RHPN1 PDZ (Homo sapiens, UniProt Q8TCX5); experiment: Holdup assay; settings: composite holdup affinity; 0.00=below quantification threshold; read-out: COMP pKd (converted)
RHPN1 PDZ, sequence (Q8TCX5 513-592 limits assumed): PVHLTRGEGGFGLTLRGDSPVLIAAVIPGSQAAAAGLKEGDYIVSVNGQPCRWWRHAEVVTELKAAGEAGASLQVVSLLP

GRIP2_7 PDZ = GRIP2_7 PDZ (Homo sapiens, UniProt Q9C0E4); experiment: Holdup assay; settings: composite holdup affinity; 0.00=below quantification threshold; read-out: COMP pKd (converted)
GRIP2_7 PDZ, sequence (Q9C0E4 941-1023 limits assumed): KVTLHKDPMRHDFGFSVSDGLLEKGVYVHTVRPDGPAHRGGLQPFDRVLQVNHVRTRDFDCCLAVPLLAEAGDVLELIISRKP

GIPC2 PDZ, sequence (Q8TF65 117-197 limits assumed): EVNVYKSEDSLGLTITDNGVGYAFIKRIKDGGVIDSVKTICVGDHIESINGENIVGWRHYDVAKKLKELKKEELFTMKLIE

Sequence | Kd (GIPC2 PDZ) [µM] | Kd (DLG3_1 PDZ) [µM] | Kd (GOPC PDZ) [µM] | Kd (SNX27 PDZ) [µM] | Kd (DLG1_3 PDZ) [µM] | Kd (MAGI2_5 PDZ) [µM] | Kd (ARHGEF11 PDZ) [µM] | Kd (MAGI2_2 PDZ) [µM] | Kd (MAGI1_2 PDZ) [µM] | Kd (DLG4_2 PDZ) [µM] | Kd (DLG3_3 PDZ) [µM] | Kd (LIN7C PDZ) [µM] | Kd (SNTG2 PDZ) [µM] | Kd (PDZD7_3 PDZ) [µM] | Kd (PTPN3 PDZ) [µM] | Kd (NOS1 PDZ) [µM] | Kd (MPP1 PDZ) [µM] | Kd (MAGI2_3 PDZ) [µM] | Kd (MAST2 PDZ) [µM] | Kd (DLG2_2 PDZ) [µM] | other results
RHTTSTETAV [HPV30-E6] | 110 | 35.5 | 72.4 | 2.29 | 40.7 | 49 | 44.7 | 9.12 | 40.7 | 3.55 | 21.9 | 64.6 | 21.4 | 79.4 | 7.41 | 23.4 | 6.76 | 26.9 | 3.02 | 6.46 | Kd (MAGI3_2 PDZ): 4.37 µM; Kd (APBA1_2 PDZ): 58.9 µM; Kd (DLG4_1 PDZ): 12 µM; Kd (DLG2_3 PDZ): 16.2 µM; Kd (NHERF3_1 PDZ): 13.5 µM; Kd (MAST1 PDZ): 21.9 µM; Kd (LNX2_2 PDZ): 170 µM; Kd (SCRIB_1 PDZ): 17.4 µM; Kd (DLG2_1 PDZ): 14.5 µM; Kd (DFNB31_1 PDZ): 53.7 µM; Kd (DLG4_3 PDZ): 44.7 µM; Kd (SCRIB_3 PDZ): 9.55 µM; Kd (SNTG1 PDZ): 11.5 µM; Kd (PDZRN4_1 PDZ): 29.5 µM; Kd (SCRIB2 PDZ): 7.76 µM; Kd (SNTA1 PDZ): 19.1 µM; Kd (RHPN1 PDZ): 83.2 µM; Kd (GRIP2_7 PDZ): 145 µM
RTRQRNETQV [HPV51-E6] | 234 | 52.5 | 191 | 14.1 | 28.8 | 75.9 | 204 | 0.219 | 1.17 | 10.2 | 12.3 | 145 | 60.3 | 132 | 41.7 | 123 | 1.55 | 95.5 | 5.37 | 10.7 | Kd (MAGI3_2 PDZ): 1.48 µM; Kd (APBA1_2 PDZ): 275 µM; Kd (DLG4_1 PDZ): 12.6 µM; Kd (DLG2_3 PDZ): 17.8 µM; Kd (NHERF3_1 PDZ): 67.6 µM; Kd (MAST1 PDZ): 58.9 µM; Kd (LNX2_2 PDZ): 245 µM; Kd (SCRIB_1 PDZ): 27.5 µM; Kd (DLG2_1 PDZ): 8.71 µM; Kd (DFNB31_1 PDZ): 339 µM; Kd (DLG4_3 PDZ): 17.8 µM; Kd (SCRIB_3 PDZ): 67.6 µM; Kd (SNTG1 PDZ): 105 µM; Kd (PDZRN4_1 PDZ): 69.2 µM; Kd (SCRIB2 PDZ): 40.7 µM; Kd (SNTA1 PDZ): 58.9 µM; Kd (RHPN1 PDZ): 200 µM; Kd (GRIP2_7 PDZ): 331 µM
